Data as given in patent publication US10730889B2, “Amido spirocyclic amide and sulfonamide derivatives” (Forma TM, LLC, priority 2012, dated 2020).

The compounds below were run on A2780 cells (assay: In-vitro cell proliferation assay (SRB, 72 hours)). Settings: Homo sapiens, A2780, 72 h, A2780 cells, 72 hours, SRB; read-out: Cell Proliferation (IC50).
Format: cell-based
Description: Assay 2: In-Vitro Cell Proliferation Assay
Assay Method. […] The compounds were then further diluted to 10× final concentration in culture media, whereupon 20 μL of each dilution was added to the plated cells with controls (e.g. DMSO and blank) to make a final volume of 200 μL. The final DMSO concentration in each well was 0.1%. The plates were then incubated for 72 hours at 37° C. in a 5% CO2 incubator. The number of viable cells was then assessed using sulforhodamine B (SRB) assay. Cells were fixed at 4° C. for 1 hour with the addition of 50 μL 30% trichloroacetic acid (TCA) to make a final concentration of 6% TCA. The plates were washed four times with H2O and allowed to dry for at least 1 hour, whereupon 100 μL of a 4% SRB in 1% acetic acid solution was added to each well and incubated at room temperature for at least 30 min. The plates were then washed three times with 1% acetic acid, dried, and treated with 100 μL of 10 mM Tris-Base solution. The plates were then read in a microplate reader at an absorbance of 570 nm. Background was generated on a separate plate with media only.
Determination of IC50 Values. First, the signals from the background plate were averaged, then the background was subtracted from the test plates.

Compound | IC50 [µM]
Cc1nn(C)cc1-c1cc(C(=O)N2CCC3(CC2)CC3CNC(=O)c2cc3ccncc3o2)no1 (stereo not shown) [Example 305, N-[[6-[5-(1,3-dimethylpyrazol-4-yl)isoxazole-3-carbonyl]-6-azaspiro[2.5]octan-2-yl]methyl]furo[2,3-c]pyridine-2-carboxamide] | 0.0612
CC(C)(C)OC(=O)N1Cc2[nH]nc(C(=O)N3CCC4(CC3)CC4CNC(=O)c3cc4ccncc4o3)c2C1 (stereo not shown) [Example 306, tert-butyl 3-[2-[(furo[2,3-c]pyridine-2-carbonylamino)methyl]-6-azaspiro[2.5]octane-6-carbonyl]-4,6-dihydro-1H-pyrrolo[3,4-c]pyrazole-5-carboxylate] | 0.0388
CN1CCC(n2cc(C(=O)N3CCC4(CC3)CC4CNC(=O)c3cc4ccncc4o3)cn2)C1 (stereo not shown) [Example 307, N-[[6-[1-(1-methylpyrrolidin-3-yl)pyrazole-4-carbonyl]-6-azaspiro[2.5]octan-2-yl]methyl]furo[2,3-c]pyridine-2-carboxamide] | 0.0267
Cc1cc(C(=O)N2CCC3(CC2)CC3CNC(=O)c2cc3ccncc3o2)n(C(C)(C)C)n1 (stereo not shown) [Example 308, N-[[6-(2-tert-butyl-5-methyl-pyrazole-3-carbonyl)-6-azaspiro[2.5]octan-2-yl]methyl]furo[2,3-c]pyridine-2-carboxamide] | 2
Cc1nc2ccccn2c1C(=O)N1CCC2(CC1)CC2CNC(=O)c1cc2ccncc2o1 (stereo not shown) [Example 309, N-[[6-(2-methylimidazo[1,2-a]pyridine-3-carbonyl)-6-azaspiro[2.5]octan-2-yl]methyl]furo[2,3-c]pyridine-2-carboxamide] | 0.0247
Cc1ccc2nc(C(=O)N3CCC4(CC3)CC4CNC(=O)c3cc4ccncc4o3)[nH]c2c1 (stereo not shown) [Example 310, N-[[6-(6-methyl-1H-benzimidazole-2-carbonyl)-6-azaspiro[2.5]octan-2-yl]methyl]furo[2,3-c]pyridine-2-carboxamide] | 0.0308
Cc1cccc2nc(C(=O)N3CCC4(CC3)CC4CNC(=O)c3cc4ccncc4o3)cn12 (stereo not shown) [Example 311, N-[[6-(5-methylimidazo[1,2-a]pyridine-2-carbonyl)-6-azaspiro[2.5]octan-2-yl]methyl]furo[2,3-c]pyridine-2-carboxamide] | 0.0121
O=C(NCC1CC12CCN(C(=O)c1n[nH]c3cc(F)ccc13)CC2)c1cc2ccncc2o1 (stereo not shown) [Example 312, N-[[6-(6-fluoro-1H-indazole-3-carbonyl)-6-azaspiro[2.5]octan-2-yl]methyl]furo[2,3-c]pyridine-2-carboxamide] | 0.00961
O=C(NCC1CC12CCN(C(=O)c1cc3ncccn3n1)CC2)c1cc2ccncc2o1 (stereo not shown) [Example 313, N-[[6-(pyrazolo[1,5-a]pyrimidine-2-carbonyl)-6-azaspiro[2.5]octan-2-yl]methyl]furo[2,3-c]pyridine-2-carboxamide] | 0.0159
CCn1nc(C)c(C(=O)N2CCC3(CC2)CC3CNC(=O)c2cc3ccncc3o2)c1C (stereo not shown) [Example 314, N-[[6-(1-ethyl-3,5-dimethyl-pyrazole-4-carbonyl)-6-azaspiro[2.5]octan-2-yl]methyl]furo[2,3-c]pyridine-2-carboxamide] | 0.00676
Cc1ccc2nc(C(=O)N3CCC4(CC3)CC4CNC(=O)c3cc4ccncc4o3)cn2c1 (stereo not shown) [Example 315, N-[[6-(6-methylimidazo[1,2-a]pyridine-2-carbonyl)-6-azaspiro[2.5]octan-2-yl]methyl]furo[2,3-c]pyridine-2-carboxamide] | 0.104
O=C(NCC1CC12CCN(C(=O)c1cnn3ccccc13)CC2)c1cc2ccncc2o1 (stereo not shown) [Example 316, N-[[6-(pyrazolo[1,5-a]pyridine-3-carbonyl)-6-azaspiro[2.5]octan-2-yl]methyl]furo[2,3-c]pyridine-2-carboxamide] | 2
CC(C)c1oncc1C(=O)N1CCC2(CC1)CC2CNC(=O)c1cc2ccncc2o1 (stereo not shown) [Example 318, N-[[6-(5-isopropylisoxazole-4-carbonyl)-6-azaspiro[2.5]octan-2-yl]methyl]furo[2,3-c]pyridine-2-carboxamide] | 2
